ChEMBL document CHEMBL1141416, “Discovery of a potent and selective prostaglandin D2 receptor antagonist, [(3R)-4-(4-chloro-benzyl)-7-fluoro-5-(methylsulfonyl)-1,2,3,4-tetrahydrocyclopenta[b]indol-3-yl]-acetic acid (MK-0524)” (J Med Chem, 2007)
Values belong to the compound of their own block, whether it stands above or below them.

How the values were obtained:
[1] = molecular target: Prostacyclin receptor (Homo sapiens, UniProt P43119); assay: Binding affinity to human IP receptor expressed in HEK293 cells; format: cell-based
[2] = molecular target: Prostaglandin E2 receptor EP2 subtype (Homo sapiens, UniProt P43116); assay: Binding affinity to human EP2 receptor expressed in HEK293 cells; format: cell-based
[3] = molecular target: Prostaglandin E2 receptor EP4 subtype (Homo sapiens, UniProt P35408); assay: Binding affinity to human EP4 receptor expressed in HEK293 cells; format: cell-based
[4] = molecular target: T1, Prostaglandin D2 receptor (Homo sapiens, UniProt Q13258); assay: Activity at human DP receptor in washed platelets assessed as inhibition of PGD2-induced cAMP accumulation; format: functional
T1 sequence (Q13258 whole entry): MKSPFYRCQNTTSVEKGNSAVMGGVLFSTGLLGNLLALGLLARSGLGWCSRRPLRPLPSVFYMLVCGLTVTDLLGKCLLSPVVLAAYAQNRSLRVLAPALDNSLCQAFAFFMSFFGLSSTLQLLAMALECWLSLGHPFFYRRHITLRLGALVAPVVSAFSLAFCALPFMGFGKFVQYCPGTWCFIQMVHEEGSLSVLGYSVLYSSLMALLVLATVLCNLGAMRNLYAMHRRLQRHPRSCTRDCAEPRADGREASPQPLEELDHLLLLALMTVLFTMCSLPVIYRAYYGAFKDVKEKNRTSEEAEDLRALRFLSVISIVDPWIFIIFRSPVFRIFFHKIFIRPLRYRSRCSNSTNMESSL

[5] = molecular target: Prostaglandin F2-alpha receptor (Homo sapiens, UniProt P43088); assay: Binding affinity to human FP receptor expressed in HEK293 cells; format: cell-based
[6] = Metabolic stability in rat hepatocytes after 2 hrs at 50 uM; format: ADME, cell-based, Hepatocyte; conditions: read-out: Stability
[7] = molecular target: T2, Thromboxane A2 receptor (Homo sapiens, UniProt P21731); assay: Binding affinity to human TP receptor expressed in HEK293 cells; format: cell-based
T2 sequence (P21731 whole entry): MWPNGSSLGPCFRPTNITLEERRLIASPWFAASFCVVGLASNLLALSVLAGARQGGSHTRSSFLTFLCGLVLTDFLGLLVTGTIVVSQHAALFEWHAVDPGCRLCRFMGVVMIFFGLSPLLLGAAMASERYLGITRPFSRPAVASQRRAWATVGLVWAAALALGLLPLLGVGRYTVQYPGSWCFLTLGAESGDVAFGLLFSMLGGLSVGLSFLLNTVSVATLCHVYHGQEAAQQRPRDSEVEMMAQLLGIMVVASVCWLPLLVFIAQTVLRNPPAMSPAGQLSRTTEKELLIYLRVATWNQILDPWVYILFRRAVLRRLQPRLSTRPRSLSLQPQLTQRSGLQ

[8] = molecular target: T1, Prostaglandin D2 receptor; assay: Activity at human DP receptor in platelet rich plasma assessed as inhibition of PGD2-induced cAMP accumulation; format: functional
[9] = molecular target: T3, Prostaglandin E2 receptor EP1 subtype (Homo sapiens, UniProt P34995); assay: Binding affinity to human EP1 receptor expressed in HEK293 cells; format: cell-based
T3 sequence (P34995 whole entry): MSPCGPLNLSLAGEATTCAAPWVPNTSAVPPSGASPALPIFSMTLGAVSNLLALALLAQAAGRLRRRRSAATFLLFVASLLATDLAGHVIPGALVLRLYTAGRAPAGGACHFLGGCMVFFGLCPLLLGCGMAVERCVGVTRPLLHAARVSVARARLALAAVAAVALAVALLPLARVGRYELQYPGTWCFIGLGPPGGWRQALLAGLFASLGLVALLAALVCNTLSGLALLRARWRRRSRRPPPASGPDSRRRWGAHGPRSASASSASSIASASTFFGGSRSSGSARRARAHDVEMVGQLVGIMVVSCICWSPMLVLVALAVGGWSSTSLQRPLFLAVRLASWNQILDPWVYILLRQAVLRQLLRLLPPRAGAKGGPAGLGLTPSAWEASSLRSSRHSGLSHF

[10] = molecular target: T4, Prostaglandin E2 receptor EP3 subtype (Homo sapiens, UniProt P43115); assay: Binding affinity to human EP3 receptor expressed in HEK293 cells; format: cell-based
T4 sequence (P43115 whole entry): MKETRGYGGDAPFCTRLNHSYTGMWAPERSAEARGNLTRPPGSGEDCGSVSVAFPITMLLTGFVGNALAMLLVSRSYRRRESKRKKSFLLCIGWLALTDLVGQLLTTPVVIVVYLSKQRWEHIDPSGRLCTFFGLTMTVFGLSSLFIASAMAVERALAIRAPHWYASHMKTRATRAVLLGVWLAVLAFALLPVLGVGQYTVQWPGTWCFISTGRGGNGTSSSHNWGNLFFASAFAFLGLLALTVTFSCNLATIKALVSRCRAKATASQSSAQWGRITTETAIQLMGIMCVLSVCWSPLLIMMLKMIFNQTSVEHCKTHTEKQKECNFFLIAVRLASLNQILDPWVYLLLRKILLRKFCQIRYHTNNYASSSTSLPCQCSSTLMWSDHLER

[11] = molecular target: T1, Prostaglandin D2 receptor; assay: Binding affinity to human DP receptor expressed in HEK293 cells; format: cell-based
[12] = test system: Liver microsomes; assay: Protein binding in rat liver microsomes in presence of NADPH after 1 hr at 10 uM; format: ADME, Microsome
[13] = test system: Hepatocyte; assay: Covalent protein binding in rat hepatocyte after 2 hrs at 10 uM; format: ADME, cell-based; conditions: hepatocytes
[14] = test system: Liver microsomes; assay: Covalent protein binding in human liver microsomes in presence of NADPH after 1 hr at 10 uM; format: ADME, Microsome
[15] = test system: Hepatocyte; assay: Protein binding in human hepatocyte after 2 hrs at 10 uM; format: ADME, cell-based; conditions: hepatocytes
[16] = Plasma concentration in sheep allergic rhinitis model after 30 mins at 0.03 mg/kg, iv
[17] = Plasma concentration in sheep allergic rhinitis model after 30 mins at 0.1 mg/kg, iv
[18] = Cmax in Sprague-Dawley rat after 6 hrs at 100 mg/kg, po; format: ADME, organism-based; set-up: dose 100 mg/kg, route oral; conditions: in vivo
[19] = Cmax in Sprague-Dawley rat at 100 mg/kg, po; format: ADME, organism-based; set-up: dose 100 mg/kg, route oral; conditions: in vivo
[20] = Plasma half life in Sprague-Dawley rat at 5 mg/kg, iv; format: ADME, organism-based; set-up: dose 5 mg/kg, route intravenous
[21] = Cmax in Sprague-Dawley rat biliary fluid by bile duct cannulation study at 5 mg/kg, iv; format: ADME, organism-based; set-up: dose 5 mg/kg, route intravenous
[22] = Cmax in Sprague-Dawley rat at 10 mg/kg, po; format: ADME, organism-based; set-up: dose 10 mg/kg, route oral; conditions: in vivo
[23] = Tmax in Sprague-Dawley rat biliary fluid by bile duct cannulation study at 5 mg/kg, iv; format: ADME, organism-based; set-up: dose 5 mg/kg, route intravenous
[24] = Bioavailability in Sprague-Dawley rat at 10 mg/kg, po and 5 mg/kg, iv; format: ADME, organism-based; conditions: in vivo
[25] = Volume of distribution in Sprague-Dawley rat at 10 mg/kg, po and 5 mg/kg, iv; format: ADME, organism-based; conditions: in vivo
[26] = test system: Rattus norvegicus; assay: AUC (0-6hrs) in Sprague-Dawley rat at 100 mg/kg, po; format: ADME, organism-based, Plasma; set-up: time < 6 hr, dose 100 mg/kg, route oral; conditions: in vivo
[27] = test system: Rattus norvegicus; assay: (§1) Cmax in Sprague-Dawley rat after 6 hrs at 10 mg/kg, po; format: ADME, organism-based; set-up: dose 10 mg/kg, route oral; conditions: in vivo, 6 h
[28] = Plasma clearance in Sprague-Dawley rat at 10 mg/kg, po and 5 mg/kg, iv; format: ADME, organism-based; set-up: unit not given here
[29] = test system: Rattus norvegicus; assay: AUC (0-6hrs) in Sprague-Dawley rat at 10 mg/kg, po; format: ADME, organism-based, Plasma; set-up: time < 6 hr, dose 10 mg/kg, route oral; conditions: in vivo
[30] = as §1; format: ADME, organism-based; set-up: dose 10 mg/kg, route oral; conditions: Sprague-Dawley, in vivo
[31] = Activity at human TP receptor in platelet rich plasma assessed as inhibition […]-induced platelet aggregation

Sequence of Prostaglandin E2 receptor EP4 subtype (P35408 whole entry): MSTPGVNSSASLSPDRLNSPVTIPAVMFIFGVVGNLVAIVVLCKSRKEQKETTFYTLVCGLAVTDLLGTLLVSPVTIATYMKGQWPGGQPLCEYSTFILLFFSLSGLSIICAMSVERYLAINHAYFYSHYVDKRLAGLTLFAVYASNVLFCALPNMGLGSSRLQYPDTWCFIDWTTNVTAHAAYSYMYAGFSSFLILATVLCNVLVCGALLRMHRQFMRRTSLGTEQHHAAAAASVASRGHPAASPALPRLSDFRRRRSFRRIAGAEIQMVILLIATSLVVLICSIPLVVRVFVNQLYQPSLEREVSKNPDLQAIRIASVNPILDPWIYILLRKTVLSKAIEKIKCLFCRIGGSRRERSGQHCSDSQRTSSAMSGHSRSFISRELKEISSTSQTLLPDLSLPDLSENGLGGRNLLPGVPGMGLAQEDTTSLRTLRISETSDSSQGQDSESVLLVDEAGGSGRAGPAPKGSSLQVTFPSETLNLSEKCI
Sequence of Prostacyclin receptor (P43119 whole entry): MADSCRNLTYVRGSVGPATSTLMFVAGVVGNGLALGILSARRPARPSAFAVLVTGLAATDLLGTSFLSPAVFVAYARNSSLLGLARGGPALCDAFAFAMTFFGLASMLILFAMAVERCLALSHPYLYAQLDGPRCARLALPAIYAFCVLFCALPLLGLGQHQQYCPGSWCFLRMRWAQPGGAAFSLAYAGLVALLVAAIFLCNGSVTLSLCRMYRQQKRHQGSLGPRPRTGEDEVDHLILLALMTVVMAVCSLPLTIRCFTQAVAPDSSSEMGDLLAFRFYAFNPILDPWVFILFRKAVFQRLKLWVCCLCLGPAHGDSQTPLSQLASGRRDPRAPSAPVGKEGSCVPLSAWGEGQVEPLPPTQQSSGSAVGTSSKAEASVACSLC
Sequence of Prostaglandin E2 receptor EP2 subtype (P43116 whole entry): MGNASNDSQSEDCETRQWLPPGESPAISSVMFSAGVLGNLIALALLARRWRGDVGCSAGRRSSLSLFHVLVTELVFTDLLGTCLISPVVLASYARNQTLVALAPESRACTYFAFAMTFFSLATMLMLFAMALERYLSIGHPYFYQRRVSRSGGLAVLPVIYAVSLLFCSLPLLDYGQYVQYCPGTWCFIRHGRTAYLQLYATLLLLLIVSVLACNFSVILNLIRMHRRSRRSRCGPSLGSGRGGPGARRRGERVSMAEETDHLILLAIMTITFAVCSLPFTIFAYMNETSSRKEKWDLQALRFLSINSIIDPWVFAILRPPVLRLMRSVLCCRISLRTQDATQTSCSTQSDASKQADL
Sequence of Prostaglandin F2-alpha receptor (P43088 whole entry): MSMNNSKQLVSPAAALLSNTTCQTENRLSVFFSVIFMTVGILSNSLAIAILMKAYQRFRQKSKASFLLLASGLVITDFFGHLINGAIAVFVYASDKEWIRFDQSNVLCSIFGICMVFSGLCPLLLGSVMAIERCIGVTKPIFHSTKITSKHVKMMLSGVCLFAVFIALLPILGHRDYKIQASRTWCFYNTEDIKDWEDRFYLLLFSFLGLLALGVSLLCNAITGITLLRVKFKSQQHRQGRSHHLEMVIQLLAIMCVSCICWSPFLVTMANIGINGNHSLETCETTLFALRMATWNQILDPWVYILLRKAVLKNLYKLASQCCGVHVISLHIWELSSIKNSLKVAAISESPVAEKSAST

Structure (SMILES): CC(=O)c1cc(F)cc2c3c(n(Cc4ccc(Cl)cc4)c12)[C@@H](CC(=O)O)CC3
- Ki [1]: 14 µM
- Ki [2]: 0.31 µM (antagonist)
- Ki [3]: > 20 µM
- IC50 [4]: 0.00029 µM (antagonist)
- Ki [5]: > 20 µM
- remaining at 2 h, 50 µM [6]: 35%
- Ki [7]: 0.014 µM (antagonist)
- IC50 [8]: 0.015 µM (antagonist)
- Ki [9]: > 9 µM
- Ki [10]: 1.2 µM
- Ki [11]: 0.0011 µM (antagonist)

Structure (SMILES): CS(=O)(=O)c1cc(F)cc2c3c(n(Cc4ccc(Cl)cc4)c12)[C@@H](CC(=O)O)CC3 [LAROPIPRANT]
- remaining at 2 h, 50 µM [6]: 32%
- concentration at 0.5 h [16]: 0.091 µM
- concentration at 0.5 h [17]: 0.67 µM

Structure (SMILES): CC(=O)c1cc(S(C)(=O)=O)cc2c3c(n(Cc4ccc(Cl)cc4)c12)[C@@H](CC(=O)[O-])CC3.[Na+]
- Cmax [18]: 7 µM
- Cmax [19]: 31 µM
- half-life [20]: 1.4 h
- Cmax [21]: 1100 µM
- Cmax [22]: 21 µM
- Tmax [23]: 0 h
- bioavailability [24]: 128%
- Vdss [25]: 0.7 Not_given
- AUC [26]: 120 µM·h
- Cmax [27]: 0.6 µM
- clearance [28]: 14
- AUC [29]: 30 µM·h

Structure (SMILES): CS(=O)(=O)c1cc(F)cc2c3c(n(Cc4ccc(Cl)cc4)c12)[C@@H](CC(=O)[O-])CC3.[Na+]
- half-life [20]: 7 h
- Cmax [21]: 103 µM
- Cmax [22]: 39 µM
- Tmax [23]: 0.5 h
- bioavailability [24]: 79%
- Vdss [25]: 0.5 Not_given
- Cmax [30]: 6.3 µM
- clearance [28]: 2.4

Structure (SMILES): CC(O)c1cc(S(C)(=O)=O)cc2c3c(n(Cc4ccc(Cl)cc4)c12)[C@@H](CC(=O)[O-])CC3.[Na+] (stereo not given in full)
- half-life [20]: < 1 h
- Cmax [21]: 3900 µM
- Cmax [22]: 0.29 µM
- Tmax [23]: 0 h
- bioavailability [24]: 8%
- Vdss [25]: 0.8 Not_given
- Cmax [30]: 0.03 µM
- clearance [28]: 50

Structure (SMILES): [3H]C([3H])([3H])S(=O)(=O)c1cc(C(C)=O)c2c(c1)c1c(n2Cc2ccc(Cl)cc2)[C@@H](CC(=O)O)CC1
- Activity [12]: 23 pmol/mg/h
- Activity [13]: 8 pmol/mg/h
- Activity [14]: 18 pmol/mg/h
- Activity [15]: 5 pmol/mg/h

Structure (SMILES): CC(=O)c1cc(F)cc2c3c(n(Cc4ccc(Cl)cc4)c12)[C@@H](C[14C](=O)O)CC3
- Activity [12]: 290 pmol/mg/h
- Activity [13]: 45 pmol/mg/h
- Activity [14]: 46 pmol/mg/h
- Activity [15]: 16 pmol/mg/h

Structure (SMILES): [3H]C([3H])([3H])S(=O)(=O)c1cc(C(C)O)c2c(c1)c1c(n2Cc2ccc(Cl)cc2)[C@@H](CC(=O)O)CC1 (stereo not given in full)
- Activity [12]: 13 pmol/mg/h
- Activity [13]: 9 pmol/mg/h
- Activity [14]: 9 pmol/mg/h
- Activity [15]: < 5 pmol/mg/h

Structure (SMILES): CC(=O)c1cc(S(C)(=O)=O)cc2c3c(n(Cc4ccc(Cl)cc4)c12)[C@@H](CC(=O)O)CC3
- remaining at 2 h, 50 µM [6]: 93%
- IC50 [31]: 8.4 µM

Structure (SMILES): CC(O)c1cc(S(C)(=O)=O)cc2c3c(n(Cc4ccc(Cl)cc4)c12)[C@@H](CC(=O)O)CC3 (stereo not given in full)
- Ki [3]: > 20 µM
- remaining at 2 h, 50 µM [6]: 100%
- IC50 [31]: 43 µM

Second part, the compound after the results:

- Activity [12]: 460 pmol/mg/h
- Activity [13]: 74 pmol/mg/h
- Activity [14]: 33 pmol/mg/h
- Activity [15]: 33 pmol/mg/h
Structure (SMILES): O=[14C](O)C[C@H]1CCc2c1n(Cc1ccc(Cl)cc1)c1c(Br)cc(F)cc21

- Ki [1]: 0.4 µM (antagonist)
- Ki [2]: 0.41 µM (antagonist)
- Ki [3]: 4.4 µM
- IC50 [4]: 0.00026 µM (antagonist)
- Ki [5]: 14 µM
- remaining at 2 h, 50 µM [6]: 42%
- Ki [7]: 0.00084 µM (antagonist)
- IC50 [8]: 0.023 µM (antagonist)
- Ki [9]: 4.4 µM
- Ki [10]: 0.47 µM (antagonist)
- Ki [11]: 0.0015 µM (antagonist)
Structure (SMILES): O=C(O)C[C@H]1CCc2c1n(Cc1ccc(Cl)cc1)c1c(Br)cc(F)cc21

- half-life [20]: 4 h
- Cmax [21]: 81 µM
- Cmax [22]: 21 µM
- Tmax [23]: 2.5 h
- bioavailability [24]: 52%
- Vdss [25]: 0.5 Not_given
- Cmax [30]: 7.5 µM
- clearance [28]: 1.9
Structure (SMILES): CC(=O)c1cc(F)cc2c3c(n(Cc4ccc(Cl)cc4)c12)[C@@H](CC(=O)[O-])CC3.[Na+]

- half-life [20]: 12 h
- Cmax [21]: 29 µM
- Cmax [22]: 10 µM
- Tmax [23]: 1 h
- bioavailability [24]: 41%
- Vdss [25]: 0.4 Not_given
- Cmax [30]: 3.7 µM
- clearance [28]: 1.4
Structure (SMILES): O=C([O-])C[C@H]1CCc2c1n(Cc1ccc(Cl)cc1)c1c(Br)cc(F)cc21.[Na+]
